Results as given in ChEMBL document CHEMBL3045561, “Feeding deterrents from Zanthoxylum schinifolium against two stored-product insects” (J Agric Food Chem, 2009).

How the values were obtained:
Tribolium castaneum [1] = test: Feeding deterrent activity against adult Tribolium castaneum (red flour beetle) on compound pre-treated wheat flour disks at 10 ppm after 3 days by flour disk bioassay; format: functional
Sitophilus zeamais [2] = test: Feeding deterrent activity against adult Sitophilus zeamais on compound pretreated wheat flour disks assessed as food utilization rate at 300 ppm after 3 days by flour disk bioassay (reference value: 11.09 +/-1.12%); format: functional
Sitophilus zeamais [3] = test: Feeding deterrent activity against adult Sitophilus zeamais on compound pretreated wheat flour disks at 100 ppm after 3 days by flour disk bioassay; format: functional
Sitophilus zeamais [4] = test: Feeding deterrent activity against adult Sitophilus zeamais on compound pretreated wheat flour disks assessed as relative growth rate at 100 ppm after 3 days by flour disk bioassay (reference value: 13.61 +/-1.13 ug/mg/day); format: functional
Sitophilus zeamais [5] = test: Feeding deterrent activity against adult Sitophilus zeamais on compound pretreated wheat flour disks assessed as food utilization rate at 30 ppm after 3 days by flour disk bioassay (reference value: 11.09 +/-1.12%); format: functional
Tribolium castaneum [6] = test: Feeding deterrent activity against adult Tribolium castaneum (red flour beetle) on compound pre-treated wheat flour disks assessed as mortality at 100 ppm after 3 days by flour disk bioassay (reference value: 0%); format: functional
Tribolium castaneum [7] = test: Feeding deterrent activity against adult Tribolium castaneum (red flour beetle) on compound pre-treated wheat flour disks assessed as mortality at 10 ppm after 3 days by flour disk bioassay (reference value: 0%); format: functional
Tribolium castaneum [8] = test: Feeding deterrent activity against adult Tribolium castaneum (red flour beetle) on compound pre-treated wheat flour disks assessed as relative food consumption rate at 300 ppm after 3 days by flour disk bioassay (reference value: 143.22 +/-4.32 ug/mg/day); format: functional
Sitophilus zeamais [9] = test: Feeding deterrent activity against adult Sitophilus zeamais on compound pretreated wheat flour disks assessed as mortality at 10 ppm after 3 days by flour disk bioassay (reference value: 0%); format: functional
Tribolium castaneum [10] = test: Feeding deterrent activity against adult Tribolium castaneum (red flour beetle) on compound pre-treated wheat flour disks at 1000 ppm after 3 days by flour disk bioassay; format: functional
Tribolium castaneum [11] = test: Feeding deterrent activity against adult Tribolium castaneum (red flour beetle) on compound pre-treated wheat flour disks assessed as relative growth rate at 30 ppm after 3 days by flour disk bioassay (reference value: 29.49 +/-1.35 ug/mg/day); format: functional
Tribolium castaneum [12] = test: Feeding deterrent activity against adult Tribolium castaneum (red flour beetle) on compound pre-treated wheat flour disks at 100 ppm after 3 days by flour disk bioassay; format: functional
Sitophilus zeamais [13] = test: Feeding deterrent activity against adult Sitophilus zeamais on compound pretreated wheat flour disks assessed as mortality at 100 ppm after 3 days by flour disk bioassay (reference value: 0%); format: functional
Tribolium castaneum [14] = test: Feeding deterrent activity against adult Tribolium castaneum (red flour beetle) on compound pre-treated wheat flour disks assessed as relative food consumption rate at 100 ppm after 3 days by flour disk bioassay (reference value: 143.22 +/-4.32 ug/mg/day); format: functional
Tribolium castaneum [15] = test: Feeding deterrent activity against adult Tribolium castaneum (red flour beetle) on compound pre-treated wheat flour disks assessed as relative growth rate at 1000 ppm after 3 days by flour disk bioassay (reference value: 29.49 +/-1.35 ug/mg/day); format: functional
Sitophilus zeamais [16] = test: Feeding deterrent activity against adult Sitophilus zeamais on compound pretreated wheat flour disks after 3 days by flour disk bioassay; format: functional, organism-based
Tribolium castaneum [17] = test: Feeding deterrent activity against adult Tribolium castaneum (red flour beetle) on compound pre-treated wheat flour disks assessed as mortality at 3 ppm after 3 days by flour disk bioassay (reference value: 0%); format: functional
Tribolium castaneum [18] = test: Feeding deterrent activity against adult Tribolium castaneum (red flour beetle) on compound pre-treated wheat flour disks assessed as relative growth rate at 300 ppm after 3 days by flour disk bioassay (reference value: 29.49 +/-1.35 ug/mg/day); format: functional
Tribolium castaneum [19] = test: Feeding deterrent activity against adult Tribolium castaneum (red flour beetle) on compound pre-treated wheat flour disks assessed as food utilization rate at 1000 ppm after 3 days by flour disk bioassay (reference value: 20.59 +/-1.47%); format: functional
Sitophilus zeamais [20] = test: Feeding deterrent activity against adult Sitophilus zeamais on compound pretreated wheat flour disks assessed as relative food consumption rate at 30 ppm after 3 days by flour disk bioassay (reference value: 122.72 +/-4.32 ug/mg/day); format: functional
Sitophilus zeamais [21] = test: Feeding deterrent activity against adult Sitophilus zeamais on compound pretreated wheat flour disks at 10 ppm after 3 days by flour disk bioassay; format: functional
Tribolium castaneum [22] = test: Feeding deterrent activity against adult Tribolium castaneum (red flour beetle) on compound pre-treated wheat flour disks assessed as mortality at 1000 ppm after 3 days by flour disk bioassay (reference value: 0%); format: functional
Tribolium castaneum [23] = test: Feeding deterrent activity against adult Tribolium castaneum (red flour beetle) on compound pre-treated wheat flour disks at 3 ppm after 3 days by flour disk bioassay; format: functional
Sitophilus zeamais [24] = test: Feeding deterrent activity against adult Sitophilus zeamais on compound pretreated wheat flour disks assessed as relative growth rate at 300 ppm after 3 days by flour disk bioassay (reference value: 13.61 +/-1.13 ug/mg/day); format: functional
Sitophilus zeamais [25] = test: Feeding deterrent activity against adult Sitophilus zeamais on compound pretreated wheat flour disks assessed as relative growth rate at 3 ppm after 3 days by flour disk bioassay (reference value: 13.61 +/-1.13 ug/mg/day); format: functional
Tribolium castaneum [26] = test: Feeding deterrent activity against adult Tribolium castaneum (red flour beetle) on compound pre-treated wheat flour disks assessed as food utilization rate at 300 ppm after 3 days by flour disk bioassay (reference value: 20.59 +/-1.47%); format: functional
Sitophilus zeamais [27] = test: Feeding deterrent activity against adult Sitophilus zeamais on compound pretreated wheat flour disks assessed as mortality at 300 ppm after 3 days by flour disk bioassay (reference value: 0%); format: functional

Row | Structure (SMILES) | FDI (Tribolium castaneum [1]) [%] | ECI (Sitophilus zeamais [2]) [%] | FDI (Sitophilus zeamais [3]) [%] | Activity (Sitophilus zeamais [4]) [µg/mg/day] | ECI (Sitophilus zeamais [5]) [%] | mortality at 100 ppm (Tribolium castaneum [6]) [%] | mortality at 10 ppm (Tribolium castaneum [7]) [%] | Activity (Tribolium castaneum [8]) [µg/mg/day] | mortality at 10 ppm (Sitophilus zeamais [9]) [%] | FDI (Tribolium castaneum [10]) [%] | Activity (Tribolium castaneum [11]) [µg/mg/day] | FDI (Tribolium castaneum [12]) [%] | mortality at 100 ppm (Sitophilus zeamais [13]) [%] | Activity (Tribolium castaneum [14]) [µg/mg/day] | Activity (Tribolium castaneum [15]) [µg/mg/day] | EC50 (Sitophilus zeamais [16]) [ppm] | mortality at 3 ppm (Tribolium castaneum [17]) [%] | Activity (Tribolium castaneum [18]) [µg/mg/day] | ECI (Tribolium castaneum [19]) [%] | Activity (Sitophilus zeamais [20]) [µg/mg/day] | further results
1 | CCCCCCCc1cc(=O)c2ccccc2n1C [SCHINIFOLINE] | 18.64 | 5.92 | 59.19 | 3.79 | 10.07 | 2 | 0 | 21.29 | 0 | 98.34 | 13.13 | 66.28 | 0 | 53.37 | 0.07 | 85.63 | 0 | 1.6 | 3.29 | 89.93 | FDI (Sitophilus zeamais [21]): 10.28%; mortality at 1000 ppm (Tribolium castaneum [22]): 20%; FDI (Tribolium castaneum [23]): 4.46%; Activity (Sitophilus zeamais [24]): 2.04 µg/mg/day; Activity (Sitophilus zeamais [25]): 13.72 µg/mg/day; ECI (Tribolium castaneum [26]): 7.53%; mortality at 300 ppm (Sitophilus zeamais [27]): 6%
2 | COc1ccc2c(OC)c3ccoc3nc2c1OC [SKIMMIANINE] | 13.21 | 6.81 | 47.32 | 4.99 | 10.34 | 2 | 0 | 31.56 | 0 | 89.56 | 15.31 | 57.45 | 0 | 61.88 | 1.23 | 129.72 | 0 | 3.17 | 7.81 | 92.84 | FDI (Sitophilus zeamais [21]): 10.21%; mortality at 1000 ppm (Tribolium castaneum [22]): 14%; FDI (Tribolium castaneum [23]): 4.31%; Activity (Sitophilus zeamais [24]): 3.07 µg/mg/day; Activity (Sitophilus zeamais [25]): 13.27 µg/mg/day; ECI (Tribolium castaneum [26]): 10.03%; mortality at 300 ppm (Sitophilus zeamais [27]): 4%
